# BindingDB's records for doi:10.1021/jm00078a018 (Merck Research Laboratories, 1994)
# Assay: Inhibition of binding of [125I]-CCK-8 to the cholecystokinin type B receptor
row,SMILES,IC50 [µM]
1,O=C(Nc1ccc(Cl)cc1)NC1N=C(c2ccccc2)c2ccccc2N(CC(=O)N2CCCC2)C1=O (stereo not given),0.0016
2,CN1C(=O)[C@H](NC(=O)c2ccc(C(F)(F)F)cc2)N=C(c2ccccc2)c2ccccc21,3.3
3,O=C(Nc1ccc(Cl)cc1)N[C@H]1N=C(c2ccccc2)c2ccccc2N(CC(=O)N2CCCC2)C1=O,0.013
4,CN1C(=O)[C@H](NC(=O)Nc2cccc(I)c2)N=C(c2ccccc2)c2ccccc21,0.0069
5,CN1C(=O)[C@@H](NC(=O)c2ccc(C(F)(F)F)cc2)N=C(c2ccccc2)c2ccccc21,4.6
6,COc1cccc(NC(=O)N[C@@H]2N=C(c3ccccc3)c3ccccc3N(C)C2=O)c1,0.0022
7,CN1C(=O)[C@H](NC(=O)Nc2cccc(N)c2)N=C(c2ccccc2)c2ccccc21,0.033
8,CN1C(=O)[C@H](NC(=O)NCc2cccc(O)c2)N=C(c2ccccc2)c2ccccc21,0.019
9,CC(=O)Oc1cccc(NC(=O)N[C@@H]2N=C(c3ccccc3)c3ccccc3N(C)C2=O)c1,0.5
10,CN1C(=O)[C@H](NC(=O)Nc2cccc(O)c2)N=C(c2ccccc2)c2ccccc21,0.015
11,C=Cc1cccc(NC(=O)N[C@@H]2N=C(c3ccccc3)c3ccccc3N(C)C2=O)c1,0.035
12,CN1C(=O)[C@H](NC(=O)Nc2cccc(CN)c2)N=C(c2ccccc2)c2ccccc21,0.719
13,CN1C(=O)[C@H](NC(=O)Nc2ccccc2Cl)N=C(c2ccccc2)c2ccccc21,0.061
14,COc1cccc(NC(=O)N[C@H]2N=C(c3ccccc3)c3ccccc3N(C)C2=O)c1,0.3
15,Cc1cccc(NC(=O)N[C@@H]2N=C(c3ccccc3)c3ccccc3NC2=O)c1,0.04
16,CN1C(=O)[C@@H](NC(=O)Nc2ccccc2Cl)N=C(c2ccccc2)c2ccccc21,0.28
17,CN1C(=O)[C@H](NC(=O)Nc2cccc(Br)c2)N=C(c2ccccc2)c2ccccc21,0.0038
18,CN1C(=O)[C@H](NC(=O)Nc2cccc(Cl)c2)N=C(c2ccccc2)c2ccccc21,0.0075
19,O=C(Nc1ccc(Cl)cc1)N[C@@H]1N=C(c2ccccc2)c2ccccc2N(CC(=O)N2CCCC2)C1=O,0.0014
20,"Cc1cccc(NC(=O)NC2N=C(c3ccccc3)c3ccccc3N(CC(=O)N3CC[N+](C)(C)CC3)C2=O)c1 (stereo not given) [1,1-Dimethyl-4-{2-[2-oxo-5-phenyl-3-(3-m-tolyl-ureido)-2,3-dihydro-benzo[e][1,4]diazepin-1-yl]-acetyl}-piperazin-1-ium; iodide]",0.058
21,"C[C@H](NC(=O)NC1N=C(c2ccccc2)c2ccccc2N(C)C1=O)c1ccccc1 (stereo not given in full) [1-(1-Methyl-2-oxo-5-phenyl-2,3-dihydro-1H-benzo[e][1,4]diazepin-3-yl)-3-(1-phenyl-ethyl)-urea]",11
22,"CN1C(=O)C(NC(=O)Nc2ccccc2[N+](=O)[O-])N=C(c2ccccc2)c2ccccc21 (stereo not given) [1-(1-Methyl-2-oxo-5-phenyl-2,3-dihydro-1H-benzo[e][1,4]diazepin-3-yl)-3-(2-nitro-phenyl)-urea]",1.2
23,"CN1C(=O)C(NC(=O)Nc2cccc([N+](=O)[O-])c2)N=C(c2ccccc2)c2ccccc21 (stereo not given) [1-(1-Methyl-2-oxo-5-phenyl-2,3-dihydro-1H-benzo[e][1,4]diazepin-3-yl)-3-(3-nitro-phenyl)-urea]",0.011
24,"CN1C(=O)C(NC(=O)Nc2cccc(C(F)(F)F)c2)N=C(c2ccccc2)c2ccccc21 (stereo not given) [1-(1-Methyl-2-oxo-5-phenyl-2,3-dihydro-1H-benzo[e][1,4]diazepin-3-yl)-3-(3-trifluoromethyl-phenyl)-urea]",0.0038
25,"CN1C(=O)C(NC(=O)Nc2ccc([N+](=O)[O-])cc2)N=C(c2ccccc2)c2ccccc21 (stereo not given) [1-(1-Methyl-2-oxo-5-phenyl-2,3-dihydro-1H-benzo[e][1,4]diazepin-3-yl)-3-(4-nitro-phenyl)-urea]",0.046

row,SMILES,IC50 [µM]
1,"CN1C(=O)C(NC(=O)Nc2ccc(C(F)(F)F)cc2)N=C(c2ccccc2)c2ccccc21 (stereo not given) [1-(1-Methyl-2-oxo-5-phenyl-2,3-dihydro-1H-benzo[e][1,4]diazepin-3-yl)-3-(4-trifluoromethyl-phenyl)-urea]",0.0057
2,"CN1C(=O)C(NC(=O)Nc2cccc3ccccc23)N=C(c2ccccc2)c2ccccc21 (stereo not given) [1-(1-Methyl-2-oxo-5-phenyl-2,3-dihydro-1H-benzo[e][1,4]diazepin-3-yl)-3-naphthalen-1-yl-urea]",0.079
3,"CN1C(=O)C(NC(=O)Nc2ccccc2)N=C(c2ccccc2)c2ccccc21 (stereo not given) [1-(1-Methyl-2-oxo-5-phenyl-2,3-dihydro-1H-benzo[e][1,4]diazepin-3-yl)-3-phenyl-urea]",0.032
4,"CN1C(=O)C(NC(=O)Nc2ccccn2)N=C(c2ccccc2)c2ccccc21 (stereo not given) [1-(1-Methyl-2-oxo-5-phenyl-2,3-dihydro-1H-benzo[e][1,4]diazepin-3-yl)-3-pyridin-2-yl-urea]",0.337
5,"CN1C(=O)C(NC(=O)Nc2cccnc2)N=C(c2ccccc2)c2ccccc21 (stereo not given) [1-(1-Methyl-2-oxo-5-phenyl-2,3-dihydro-1H-benzo[e][1,4]diazepin-3-yl)-3-pyridin-3-yl-urea]",0.31
6,"CN1C(=O)C(NC(=O)Nc2ccncc2)N=C(c2ccccc2)c2ccccc21 (stereo not given) [1-(1-Methyl-2-oxo-5-phenyl-2,3-dihydro-1H-benzo[e][1,4]diazepin-3-yl)-3-pyridin-4-yl-urea]",1.07
7,"CN1C(=O)C(NC(=O)Nc2ccc3ccccc3n2)N=C(c2ccccc2)c2ccccc21 (stereo not given) [1-(1-Methyl-2-oxo-5-phenyl-2,3-dihydro-1H-benzo[e][1,4]diazepin-3-yl)-3-quinolin-2-yl-urea]",0.026
8,"CN1C(=O)C(NC(=O)Nc2ccc3ncccc3c2)N=C(c2ccccc2)c2ccccc21 (stereo not given) [1-(1-Methyl-2-oxo-5-phenyl-2,3-dihydro-1H-benzo[e][1,4]diazepin-3-yl)-3-quinolin-6-yl-urea]",0.052
9,"Cc1cccc(NC(=O)NC2N=C(c3ccccc3)c3cnccc3N(C)C2=O)c1 (stereo not given) [1-(1-Methyl-2-oxo-5-phenyl-2,3-dihydro-1H-pyrido[4,3-e][1,4]diazepin-3-yl)-3-m-tolyl-urea]",0.632
10,"Cc1cccc(NC(=O)NC2N=C(c3cccnc3)c3ccccc3N(C)C2=O)c1 (stereo not given) [1-(1-Methyl-2-oxo-5-pyridin-3-yl-2,3-dihydro-1H-benzo[e][1,4]diazepin-3-yl)-3-m-tolyl-urea]",0.092
11,"Cc1cccc(NC(=O)NC2N=C(c3ccncc3)c3ccccc3N(C)C2=O)c1 (stereo not given) [1-(1-Methyl-2-oxo-5-pyridin-4-yl-2,3-dihydro-1H-benzo[e][1,4]diazepin-3-yl)-3-m-tolyl-urea]",0.052
12,"CN1C(=O)C(NC(=O)Nc2ccc(Cl)cc2Cl)N=C(c2ccccc2)c2ccccc21 (stereo not given) [1-(2,4-Dichloro-phenyl)-3-(1-methyl-2-oxo-5-phenyl-2,3-dihydro-1H-benzo[e][1,4]diazepin-3-yl)-urea]",0.22
13,"COc1ccccc1NC(=O)NC1N=C(c2ccccc2)c2ccccc2N(C)C1=O (stereo not given) [1-(2-Methoxy-phenyl)-3-(1-methyl-2-oxo-5-phenyl-2,3-dihydro-1H-benzo[e][1,4]diazepin-3-yl)-urea]",1.2
14,"COC(=O)[C@H]1CCCN1OC(=O)CN1C(=O)C(NC(=O)Nc2cccc(OC)c2)N=C(c2ccccc2)c2ccccc21 (stereo not given in full) [1-(2-{3-[3-(3-Methoxy-phenyl)-ureido]-2-oxo-5-phenyl-2,3-dihydro-benzo[e][1,4]diazepin-1-yl}-acetoxy)-pyrrolidine-2-carboxylic acid methyl ester]",0.0097
15,"CN1C(=O)C(NC(=O)Nc2ccc(Cl)c(Cl)c2)N=C(c2ccccc2)c2ccccc21 (stereo not given) [1-(3,4-Dichloro-phenyl)-3-(1-methyl-2-oxo-5-phenyl-2,3-dihydro-1H-benzo[e][1,4]diazepin-3-yl)-urea]",0.067
16,"Cc1ccc(NC(=O)NC2N=C(c3ccccc3)c3ccccc3N(C)C2=O)cc1C (stereo not given) [1-(3,4-Dimethyl-phenyl)-3-(1-methyl-2-oxo-5-phenyl-2,3-dihydro-1H-benzo[e][1,4]diazepin-3-yl)-urea]",0.022
17,"COc1cc(NC(=O)NC2N=C(c3ccccc3)c3ccccc3N(C)C2=O)cc(OC)c1 (stereo not given) [1-(3,5-Dimethoxy-phenyl)-3-(1-methyl-2-oxo-5-phenyl-2,3-dihydro-1H-benzo[e][1,4]diazepin-3-yl)-urea]",2.3
18,"Cc1cc(C)cc(NC(=O)NC2N=C(c3ccccc3)c3ccccc3N(C)C2=O)c1 (stereo not given) [1-(3,5-Dimethyl-phenyl)-3-(1-methyl-2-oxo-5-phenyl-2,3-dihydro-1H-benzo[e][1,4]diazepin-3-yl)-urea]",0.267
19,"CC(=O)c1cccc(NC(=O)NC2N=C(c3ccccc3)c3ccccc3N(C)C2=O)c1 (stereo not given) [1-(3-Acetyl-phenyl)-3-(1-methyl-2-oxo-5-phenyl-2,3-dihydro-1H-benzo[e][1,4]diazepin-3-yl)-urea]",0.0048
20,"CN1C(=O)C(NC(=O)Nc2cccc(Br)c2)N=C(c2ccccc2)c2ccccc21 (stereo not given) [1-(3-Bromo-phenyl)-3-(1-methyl-2-oxo-5-phenyl-2,3-dihydro-1H-benzo[e][1,4]diazepin-3-yl)-urea]",0.005
21,"CN1C(=O)C(NC(=O)Nc2cccc(Cl)c2)N=C(c2ccccc2)c2ccccc21 (stereo not given) [1-(3-Chloro-phenyl)-3-(1-methyl-2-oxo-5-phenyl-2,3-dihydro-1H-benzo[e][1,4]diazepin-3-yl)-urea]",0.0098
22,"CN1C(=O)C(NC(=O)Nc2cccc(C#N)c2)N=C(c2ccccc2)c2ccccc21 (stereo not given) [1-(3-Cyano-phenyl)-3-(1-methyl-2-oxo-5-phenyl-2,3-dihydro-1H-benzo[e][1,4]diazepin-3-yl)-urea]",0.027
23,"C#Cc1cccc(NC(=O)NC2N=C(c3ccccc3)c3ccccc3N(C)C2=O)c1 (stereo not given) [1-(3-Ethynyl-phenyl)-3-(1-methyl-2-oxo-5-phenyl-2,3-dihydro-1H-benzo[e][1,4]diazepin-3-yl)-urea]",0.022
24,"CN1C(=O)C(NC(=O)Nc2cccc(F)c2)N=C(c2ccccc2)c2ccccc21 (stereo not given) [1-(3-Fluoro-phenyl)-3-(1-methyl-2-oxo-5-phenyl-2,3-dihydro-1H-benzo[e][1,4]diazepin-3-yl)-urea]",0.054
25,"COc1cccc(NC(=O)NC2N=C(c3ccccc3)c3ccccc3N(C)C2=O)c1 (stereo not given) [1-(3-Methoxy-phenyl)-3-(1-methyl-2-oxo-5-phenyl-2,3-dihydro-1H-benzo[e][1,4]diazepin-3-yl)-urea]",0.003
